Patent US8026218B2, “Bifunctional analgesic compounds for opioid receptor agonists and neurokinin-1 receptor antagonists” (The University of Arizona, priority 2006, dated 2011)
Read-outs that look alike come from different tables or passages of the source. Peptide text beside a SMILES is read from it.

How the values were obtained:
[1] = target: T1, human δ opioid receptors (hDOR) (Homo sapiens, UniProt P41143); assay: Radioligand competition binding, [3H]DPDPE, hDOR membranes
T1 construct: expressed in transfected cells; host or cells: HN9.10 neuroblastoma cell line, pCDNA3, neomycin-selected clones

[2] = target: T1, human δ opioid receptors (hDOR); assay: [35S]GTP-γ-S binding assay, hDOR; type: biochemical
μ opioid receptors (GPI) = assay: Guinea pig isolated ileum (GPI) assay, opioid agonist; parameters: GPI/LMMP Opioid(m) Agonist, % inh.: unit of the concentration uncertain;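 also: inhibition of electrically evoked contractions (0.1 Hz, 0.4 msec, supramaximal voltage) in organ baths at 37 °C, contraction height 3 min after each cumulative dose versus the 1 min before dosing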
[3] = target: T2, Substance P receptors (guinea pig NK1) (Cavia porcellus, UniProt P30547); assay: Guinea pig isolated ileum (GPI) assay with substance P stimulation in presence of 1 μM naloxone; settings: for activation at 1 µM: read-out: Substance P GPI agonist (A50), contraction relative to initial muscle contraction with KCl
T2 construct: from tissue; host or cells: guinea pig (Hartley) ileum LMMP, 1 μM naloxone present
Procedure: Testing stopped at 1 mM concentrations of the test compound.
Analysis of GPI and MVD assays. For opioid data analysis, percentage inhibition was calculated using the average tissue contraction height for 1 min preceding the addition of the agonist divided by the contraction height 3 min after exposure to the dose of agonist. […] IC50 and Emax estimates were determined by computerized nonlinear least-squares analysis (the pharmacological statistics package FlashCalc: Dr. Michael Ossipov, University of Arizona, Tucson, Ariz.). […] A50 values represent the mean of not less than 4 tissues. A50 and Emax estimates were determined by computerized nonlinear least-squares analysis (FlashCalc).

[4] = target: T3, rat μ opioid receptors (rMOR) (Rattus norvegicus, UniProt P33535); assay: Radioligand competition binding, [3H]DAMGO, rMOR membranes; settings: for LogIC50, rMOR, [3H]DAMGO: membranes from transfected HN9.10 cells
T3 construct: expressed in transfected cells; host or cells: HN9.10 neuroblastoma cell line, pCDNA3, neomycin-selected clones

[5] = target: T4, human NK1 receptor (hNK1) (Homo sapiens, UniProt P25103); assay: Radioligand competition binding, [3H]-Substance P, hNK1
T4 construct: expressed in transfected cells

[6] = target: T3, rat μ opioid receptors (rMOR); assay: biochemical; type: biochemical
rat NK1 (rNK1) receptor = target: T5, rat NK1 (rNK1) receptor (Rattus norvegicus, UniProt P14600); assay: Radioligand competition binding, [3H]substance P, rNK1/CHO membranes; settings: for IC50: membranes from transfected CHO cells; for Ki: Affinity rNK1 (Ki; nM)
T5 construct: expressed in transfected cells; host or cells: CHO (rNK-1/CHO cell line from Dr. James Krause)

δ opioid receptors (MVD) = target: T6, δ opioid receptors (MVD) (Mus musculus, UniProt P32300); assay: Mouse isolated vas deferens (MVD) assay, opioid agonist
T6 construct: from tissue; host or cells: mouse (ICR) isolated vas deferens

[7] = In vitro stability in rat plasma at 37° C.; type: in vitro ADME; settings: rat, rat plasma, FIG. 47, read-out: T1/2 in rat plasma
Procedure: The derivative compounds were tested for their metabolite stability. The compounds were incubated in rat plasma at 37° C., and aliquots were withdrawn at various time points and analyzed by HPLC to determine the concentration of remaining compound derivatives (FIGS. 15-16, 36, and 47-48).
In Vitro Stability of compound derivatives in Rat Plasm (Yamamoto, 2007, J. Am. Chem. Soc. submitted). Stock solution of compounds (50 mg/mL in DMSO) were diluted 1000-fold into rat plasma (Lot 24927, Pel-Freez Biologicals, Rogers, Ak.) to result in an incubation concentration of 50 μg/mL. All samples were incubated at 37° C. for 6 h, and 200 μL of aliquots were withdrawn at 1 h, 2 h, 4 h and 6 h. […] The samples were run in triplicate. Discussion.

[8] = Table 39, read-out: GTP binding hDOR Emax
[9] = Table 39, read-out: GPI/LMMP opioid(mu) agonist (IC50; nM)
[10] = Substance P antagonist, GPI, Ke, in the presence of 1 μM naloxone
[11] = Table 27, read-out: GTP binding rMOR EC50
[12] = Table 27, read-out: GTP binding rMOR Emax (%)
[13] = Table 39, read-out: GTP binding rMOR EC50
[14] = Table 39, read-out: GTP binding rMOR Emax
[15] = net total bound/basal binding × 100, read-out: Emax, rMOR, [35S]GTP-γ-S binding
[16] = read-out: EC50, rMOR, [35S]GTP-γ-S binding
[17] = IC50, rNK1, Substance P radioligand
[18] = Table 28, read-out: MVD Opioid (d) Agonist (IC50; nM)
[19] = Table 39, read-out: MVD opioid(delta) agonist (IC50; nM)
[20] = electrically stimulated isolated tissue, read-out: MVD (δ), IC50
[21] = Table 39, concentration not given

T3 sequence (P33535 whole entry): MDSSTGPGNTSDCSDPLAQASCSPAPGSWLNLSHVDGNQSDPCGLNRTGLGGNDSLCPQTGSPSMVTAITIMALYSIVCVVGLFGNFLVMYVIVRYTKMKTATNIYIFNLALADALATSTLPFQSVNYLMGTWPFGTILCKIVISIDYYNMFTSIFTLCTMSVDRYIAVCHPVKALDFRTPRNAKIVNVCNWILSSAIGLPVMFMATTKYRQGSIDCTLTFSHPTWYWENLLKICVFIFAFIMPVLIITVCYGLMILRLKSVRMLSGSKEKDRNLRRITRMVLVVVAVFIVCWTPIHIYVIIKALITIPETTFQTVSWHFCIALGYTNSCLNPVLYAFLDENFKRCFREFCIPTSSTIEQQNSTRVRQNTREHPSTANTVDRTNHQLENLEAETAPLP
T1 sequence (P41143 whole entry): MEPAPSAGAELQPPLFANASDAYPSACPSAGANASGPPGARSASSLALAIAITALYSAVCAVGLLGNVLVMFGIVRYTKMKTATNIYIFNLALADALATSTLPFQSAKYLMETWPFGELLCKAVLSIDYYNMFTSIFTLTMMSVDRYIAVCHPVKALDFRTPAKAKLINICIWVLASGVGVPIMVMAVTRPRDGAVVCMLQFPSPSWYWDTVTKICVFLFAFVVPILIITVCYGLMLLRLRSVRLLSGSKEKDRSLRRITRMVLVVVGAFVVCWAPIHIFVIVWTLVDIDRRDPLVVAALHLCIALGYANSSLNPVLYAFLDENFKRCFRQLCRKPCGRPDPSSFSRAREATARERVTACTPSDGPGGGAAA
T2 sequence (P30547 whole entry): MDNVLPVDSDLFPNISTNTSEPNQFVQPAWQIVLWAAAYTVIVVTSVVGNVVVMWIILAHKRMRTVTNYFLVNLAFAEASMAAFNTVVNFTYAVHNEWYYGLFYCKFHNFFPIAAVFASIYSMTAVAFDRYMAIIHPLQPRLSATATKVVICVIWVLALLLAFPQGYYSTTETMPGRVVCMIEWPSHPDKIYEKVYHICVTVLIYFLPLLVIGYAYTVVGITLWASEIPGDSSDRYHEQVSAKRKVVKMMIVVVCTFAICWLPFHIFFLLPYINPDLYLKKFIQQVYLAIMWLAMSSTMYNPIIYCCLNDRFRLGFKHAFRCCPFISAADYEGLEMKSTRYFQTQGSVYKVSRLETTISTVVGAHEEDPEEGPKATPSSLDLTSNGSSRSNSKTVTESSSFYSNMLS
T4 sequence (P25103 whole entry): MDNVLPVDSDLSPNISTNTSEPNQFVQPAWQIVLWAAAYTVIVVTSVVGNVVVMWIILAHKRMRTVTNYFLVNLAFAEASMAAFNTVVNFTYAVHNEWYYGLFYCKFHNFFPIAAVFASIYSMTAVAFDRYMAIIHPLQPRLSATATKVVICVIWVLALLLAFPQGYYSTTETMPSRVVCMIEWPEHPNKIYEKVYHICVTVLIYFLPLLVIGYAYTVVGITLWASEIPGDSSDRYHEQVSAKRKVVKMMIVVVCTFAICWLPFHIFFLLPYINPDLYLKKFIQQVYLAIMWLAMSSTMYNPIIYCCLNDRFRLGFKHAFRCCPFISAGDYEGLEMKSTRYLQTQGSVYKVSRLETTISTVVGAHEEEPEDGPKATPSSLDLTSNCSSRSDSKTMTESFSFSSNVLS
T5 sequence (P14600 whole entry): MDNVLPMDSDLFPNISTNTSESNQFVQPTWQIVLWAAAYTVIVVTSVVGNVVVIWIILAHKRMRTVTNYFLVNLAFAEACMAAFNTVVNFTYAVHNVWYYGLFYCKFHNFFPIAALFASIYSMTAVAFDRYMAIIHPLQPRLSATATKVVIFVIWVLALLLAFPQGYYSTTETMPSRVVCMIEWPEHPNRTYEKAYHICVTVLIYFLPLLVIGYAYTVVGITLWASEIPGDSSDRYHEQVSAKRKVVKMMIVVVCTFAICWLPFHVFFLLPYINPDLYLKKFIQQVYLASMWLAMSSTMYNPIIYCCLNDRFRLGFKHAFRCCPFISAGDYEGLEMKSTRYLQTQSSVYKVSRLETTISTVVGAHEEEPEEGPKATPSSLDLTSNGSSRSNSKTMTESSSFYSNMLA
T6 sequence (P32300 whole entry): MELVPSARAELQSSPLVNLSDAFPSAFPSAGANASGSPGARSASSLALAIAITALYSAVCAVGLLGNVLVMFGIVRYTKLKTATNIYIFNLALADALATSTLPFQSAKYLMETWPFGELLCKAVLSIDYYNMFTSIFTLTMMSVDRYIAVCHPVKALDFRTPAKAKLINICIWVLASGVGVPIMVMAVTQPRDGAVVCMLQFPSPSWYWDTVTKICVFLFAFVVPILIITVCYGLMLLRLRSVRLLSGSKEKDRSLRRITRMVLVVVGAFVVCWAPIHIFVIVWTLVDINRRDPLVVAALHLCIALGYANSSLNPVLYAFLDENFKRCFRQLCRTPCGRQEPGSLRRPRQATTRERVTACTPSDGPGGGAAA

SMILES	Ki ([1]; read-out: Ki, hDOR, [3H]DPDPE)	LogEC50, hDOR, [35S]GTP-γ-S binding [2]	Emax [2, 8]	IC50 (μ opioid receptors (GPI); [9])	Kb [3, 10]	activation at 1 µM [3]	LogIC50, rMOR, [3H]DAMGO [4]	Ki ([4]; read-out: Ki, rMOR, [3H]DAMGO)	Ki [5]	LogEC50, rMOR, [35S]GTP-γ-S binding [6]	EC50 [6, 11]	Emax [6, 12]	EC50 [6, 13]	Emax [6, 14]	Emax [6, 15]	EC50 [6, 16]	IC50 (rat NK1 (rNK1) receptor; [17])	IC50 (δ opioid receptors (MVD))	Ki [1]	Ki [4]	other results
CC(C)C[C@H](NC(=O)[C@@H]1CCCN1C(=O)CNC(=O)[C@H](Cc1ccccc1)NC(=O)CNC(=O)[C@@H](C)NC(=O)[C@@H](N)Cc1ccc(O)cc1)C(=O)N[C@@H](Cc1c[nH]c2ccccc12)C(=O)OCc1cc(C(F)(F)F)cc(C(F)(F)F)c1 [TY006, H-Tyr-D-Ala-Gly-Phe-Gly-Pro-Leu-Trp-O-3,5-Bzl(CF3)2] (HELM PEPTIDE1{Y.[dA].G.F.G.P.L.W.[FC(F)(F)c1cc(CO[*:1])cc(C(F)(F)F)c1]}$$$$V2.0)	36.1 nM	−7.30 ± 0.24	33.6%	384 nM	5.4 ± 1.4 nM	0%	−7.24 ± 0.15	27 nM	0.016 nM	−7.38 ± 0.20	41.7 nM	35.9%	41.7 nM	35.9%	39%	41.7 nM	15.6 nM	172 ± 26 nM	–	–	Ki ([1]; Table 27, read-out: Affinity hDOR (Ki; nM)): 36.1 nM; Ki ([1]; Table 39, read-out: Affinity hDOR (Ki; nM)): 36.1 nM; EC50 ([2]; Table 27, read-out: GTP binding hDOR EC50): 50.2 nM; Emax ([2]; Table 27, read-out: GTP binding hDOR Emax (%)): 33.6%; EC50 ([2]; Table 39, read-out: GTP binding hDOR EC50): 50.2 nM; Emax ([2]; net total bound/basal binding × 100, read-out: Emax, hDOR, [35S]GTP-γ-S binding): 35%; EC50 ([2]; read-out: EC50, hDOR, [35S]GTP-γ-S binding): 50.2 nM; IC50 (μ opioid receptors (GPI); Table 28, read-out: GPI/LMMP Opioid(m) Agonist (IC50; nM)): 384 nM; IC50 (μ opioid receptors (GPI); electrically stimulated isolated tissue, read-out: GPI (μ), IC50): 384 nM; IC50 [3]: 5.4 nM; Ki ([4]; Table 27, read-out: Affinity rMOR (Ki; nM)): 27 nM; Ki ([4]; Table 39, read-out: Affinity rMOR (Ki; nM)): 27 nM; IC50 (δ opioid receptors (MVD); [18]): 172 nM; IC50 (δ opioid receptors (MVD); [19]): 172 nM; IC50 (δ opioid receptors (MVD); [20]): 171 nM
CC(C)C[C@H](NC(=O)[C@@H]1CCCN1C(=O)[C@@H](Cc1ccccc1)NC(=O)[C@H](Cc1ccccc1)NC(=O)CNC(=O)[C@@H](C)NC(=O)[C@@H](N)Cc1ccc(O)cc1)C(=O)N[C@@H](Cc1c[nH]c2ccccc12)C(=O)OCc1cc(C(F)(F)F)cc(C(F)(F)F)c1 [TY007, H-Tyr-D-Ala-Gly-Phe-D-Phe-Pro-Leu-Trp-O-3,5-Bzl(CF3)2]	93 nM	−7.78 ± 0.36	–	–	69.6 ± 7.1 nM	0%	−6.09 ± 0.15	381 nM	1.3 nM	−6.46 ± 0.38	345 nM	23.6%	345 nM	23.6%	22%	345 nM	66.7 nM	–	110 nM	410 nM	Ki(μ)/Ki(δ) ([1]; binding, rMOR vs hDOR): 4.1; LogIC50, hDOR, [3H]DPDPE ([1]; membranes from transfected HN9.10 cells): −6.70 ± 0.13; Ki(μ)/Ki(δ) [2]: 20.5; Emax ([2]; read-out: Emax, hDOR, [35S]GTP-γ-S binding): 26%; EC50 ([2]; read-out: GTP binding hDOR EC50): 16.7 nM; Emax ([2]; read-out: GTP binding hDOR Emax): 22.9%; Emax ([2]; read-out: GTP binding hDOR Emax (%)): 22.9%; GPI/LMMP Opioid(m) Agonist, % inh. (μ opioid receptors (GPI); Table 28, at 1 (unit uncertain)): 9% inh. at 1 mM; GPI/LMMP opioid(mu) agonist, % (μ opioid receptors (GPI); [21]): 9.20%; GPI (μ), effect at single concentration (μ opioid receptors (GPI); at 1 μM): 9% at 1 μM^b; GPI/LMMP SP Agonist (IC50; nM) [3, 21]: none; IC50 (rat NK1 (rNK1) receptor; LogIC50, rNK1, Substance P radioligand): 60.3 nM; IC50 (δ opioid receptors (MVD); [18]): 412 nM; IC50 (δ opioid receptors (MVD); [19]): 412 nM; IC50 (δ opioid receptors (MVD); [20]): 412 ± 106 nM
CSCC[C@H](NC(=O)[C@H](Cc1ccccc1)NC(=O)CNC(=O)[C@@H](C)NC(=O)[C@@H](N)Cc1c(C)cc(O)cc1C)C(=O)N1CCC[C@H]1C(=O)N[C@@H](CC(C)C)C(=O)N[C@@H](Cc1c[nH]c2ccccc12)C(=O)OCc1cc(C(F)(F)F)cc(C(F)(F)F)c1 [TY033]	–	–	200%	100 nM	–	–	–	–	1.2 nM	–	–	–	–	59%	–	–	–	1.27 nM	0.22 nM	1.2 nM	IC50 (μ opioid receptors (GPI); Table 30, read-out: GPI/LMMP Opioid(m) Agonist (IC50; nM)): 100 nM; Kb ([3]; GPI/LMMP Substance P Antagonist (Ke; nM), Table 30): 24.5 nM; Ki (rat NK1 (rNK1) receptor; Table 29): 0.96 nM
CCCC[C@@H]1NC(=O)[C@H](Cc2ccccc2)NC(=O)CNC(=O)[C@H](NC(=O)[C@@H](N)Cc2ccc(O)cc2)C(C)(C)SSC(C)(C)[C@@H](C(=O)N[C@@H](Cc2c[nH]c3ccccc23)C(=O)NCc2cc(C(F)(F)F)cc(C(F)(F)F)c2)NC(=O)[C@@H]2CCCN2C1=O [TY047] (HELM PEPTIDE1{Y.[CC(C)(S[*:3])[C@@H](N[*:1])C(=O)[*:2]].G.F.[Nle].P.[Pen].W.[FC(F)(F)c1cc(CN[*:1])cc(C(F)(F)F)c1]}$PEPTIDE1,PEPTIDE1,2:R3-7:R3$$$V2.0; N-terminus assumed)	–	–	–	–	–	–	–	–	–	–	–	–	2910 nM	–	–	–	–	–	152 nM	1970 nM	half-life at 50 μg/mL [7]: > 1440 min; Ki (rat NK1 (rNK1) receptor; Table 23): 163 nM
